# Assay results as given in publication PMC7697893, “Novel 1-Amidino-4-Phenylpiperazines as Potent Agonists at Human TAAR1 Receptor: Rational Design, Synthesis, Biological Evaluation and Molecular Docking Studies” (Pharmaceuticals, 2020).
# Counter-ions that a name gives are not always drawn. Like-named read-outs stand apart in the source and are kept apart here.
# Assays:
# [1] = biological target: T1, hTAAR1 (Homo sapiens, UniProt Q96RJ0); test: Functional activity at hTAAR1, cAMP BRET biosensor in HEK-293T cells; format: cell-based; conditions: for Emax at 10 µM: HEK-293T, read-out: hTAAR1 Activity
# T1 construct: expressed in transfected cells; host or cells: HEK-293T (ATCC)
# T1 sequence (Q96RJ0 1-339): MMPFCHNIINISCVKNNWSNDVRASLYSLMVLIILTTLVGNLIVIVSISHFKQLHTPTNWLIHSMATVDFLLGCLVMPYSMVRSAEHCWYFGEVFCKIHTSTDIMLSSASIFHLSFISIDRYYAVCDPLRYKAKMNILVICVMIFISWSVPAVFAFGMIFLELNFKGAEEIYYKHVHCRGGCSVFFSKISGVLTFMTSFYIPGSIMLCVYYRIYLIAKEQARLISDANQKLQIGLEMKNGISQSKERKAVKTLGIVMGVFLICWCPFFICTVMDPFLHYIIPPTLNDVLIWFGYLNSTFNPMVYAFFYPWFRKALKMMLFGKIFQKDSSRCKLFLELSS
# Experimental: The activity of the compounds was measured using human embryonic kidney 293 (HEK-293T) cells co-transfected with plasmids encoding hTAAR1 and a cAMP Bioluminescence Resonance Energy Transfer (BRET) biosensor, or empty vector as a control. TYR was used as a positive control for agonism. Firstly, all the compounds were tested at 10 μM either for agonistic or antagonistic activity.
# BRET screening was described in detail elsewhere. HEK-293T (ATCC) cells were transiently сo-transfected with plasmids encoding hTAAR1 and a cAMP BRET biosensor using Lipofectamine® (ThermoFisher) reagent, and then plated in 96-well plates (Corning) at […] per well. On the following day, culture medium was removed and 70 μL of phosphate-buffered saline containing calcium and magnesium was added to each well, followed by the addition of 10 μL […] 3-isobutyl-1-methylxanthine solution (Sigma), and 10 μL 50 μM coelenterazine-h solution (Promega). All tested compounds were dissolved in DMSO to yield 10 mM stock solutions. After 10 min incubation, either 10 μL of vehicle or 10× of the concentrated solution of compound to be tested (10 μM final concentration) was added. Readings were collected using a Mithras LB943 multimodal plate reader (Berthold Technologies). The BRET signal is determined by calculating the ratio of the light emitted at 505 to 555 nm to the light emitted at 465 to 505 nm.
# Curves were fitted by applying non-linear regression models on GraphPad Prism 6 (GraphPad Software).
# [2] = Cell cytotoxicity assay (MTT) on Vero-76 cells; format: cell-based, Cercopithecus Aethiops; conditions: Cercopithecus aethiops (African green monkey), Vero-76 cells; MTT method, 48–96 h; CC50±SEM
# Experimental: (§1) Vero-76 cells (ATCC CRL 1587 Cercopithecus Aethiops) were seeded at an initial density of 4 × 10^5 cells/mL in 24-well plates, in culture medium (Dulbecco’s Modified Eagle Medium (D-MEM) with L-glutamine, supplemented with fetal bovine serum (FBS), 0.025 g/L kanamycin). Cell cultures were then incubated at 37 °C in a humidified, 5% CO2 atmosphere in the absence or presence of serial dilutions of test compounds. Cell viability was determined after 48–96 h at 37 °C by the MTT staining method. The results are expressed as CC50, which is the concentration of compound necessary to inhibit cell growth by 50%. Each CC50 value is the mean and standard deviation of at least three separate experiments performed in duplicate.
# [3] = test system: mTAAR1; set-up: method as in PMID 27823885, PMID 29407948; conditions: Figure 2, biguanides SET1 and SET2; cited from earlier work
# [4] = biological target: T1, hTAAR1
# [5] = test system: Vero-76 cells; test: Cell cytotoxicity assay (MTT) on Vero-76 cells; format: cell-based, Cercopithecus Aethiops; conditions: ratio of Vero-76 CC50 to hTAAR1 EC50
# Experimental: as §1
# [6] = cited from earlier work
# [7] = test system: human hepatocyte; conditions: cited from earlier work
# [8] = set-up: method as in PMID 5719030; conditions: potentiating pressor effect of tyramine and NE; cited from earlier work
# [9] = set-up: method as in PMID 5169226; conditions: rats, intraperitoneal, 100 mg/kg; cited from earlier work
# [10] = as compared with 1 µM TYR (full agonism), compounds tested at 10 μM
# [11] = Figure 2, biguanides SET1 and SET2; read-out: hTAAR1 EC50; cited from earlier work
# [12] = dose–response 10 nM to 10 μM, means of 4 experiments, errors within 10%, read-out: hTAAR1 EC50
# [13] = Figure 2, biguanides SET1 and SET2; cited from earlier work
# [14] = hTAAR1, amidines of this paper, from EC50, read-out: pEC50 (converted)
compound,measurement,setting,value
"COc1ccc(N2CCN(C(=N)N)CC2)cc1.Cl [Compound 8, 4-(4-Methoxyphenyl)piperazine-1-carboximidamide hydrochloride]",hTAAR1 Activity,[1]; [10],inactive
same,CC50,[2],88 ± 2 µM
"N=C(N)NC(=N)NCc1ccccc1 [BIG10, 1-benzylbiguanide]",EC50,[3],780 nM
same,EC50,[4]; [11],> 10 µM
COc1ccc(N2CCN(C(N)=NC(=N)N)CC2)cc1 [Compound 8a],mTAAR1 EC50,[3],inactive
"NCCc1ccc(O)cc1 [TYR, tyramine, reference compound]",hTAAR1 Activity,[1]; [10],100%
same,EC50,[1]; [12],66 nM
NC(N)=NC(N)=NCc1ccc(Cl)c(Cl)c1 [BIG14],EC50,[3],36 nM
NC(N)=NC(N)=Nc1ccccc1Cl [BIG2],EC50,[3],410 nM
COc1ccc(CN=C(N)N=C(N)N)cc1 [BIG17],mTAAR1 EC50,[3],inactive
same,hTAAR1 EC50,[4]; [13],inactive
Cc1ccc(NC(=N)N=C(N)N)cc1 [BIG8],EC50,[3],1700 nM
same,hTAAR1 EC50,[4]; [13],inactive
same,EC50,[4]; [11],> 10 µM
"Cl.N=C(N)N1CCN(c2ccccn2)CC1 [Compound 10, 4-(Pyridin-2-yl)Piperazine-1-Carboximidamide Hydrochloride]",Emax at 10 µM,[1],30%
same,EC50,[1]; [12],> 2000 nM
same,CC50,[2],74 ± 5 µM
same,Therapeutic index (CC50/EC50),[5],37
same,melting point,,205 to 208 °C
NC(N)=NC(N)=Nc1ccc(Cl)cc1 [BIG4],EC50,[3],2100 nM
same,hTAAR1 EC50,[4]; [13],inactive
same,EC50,"[4]; read-out: hTAAR1 EC50; Figure 2, biguanides SET1 and SET2; cited from earlier work",> 10 µM
"N=C(N)N1CCN(c2cccc(C(F)(F)F)c2)CC1 (as salt: hydrochloride) [Compound 9, 4-[(3-Trifluoromethyl)phenyl]piperazine-1-carboximidamide hydrochloride]",melting point,,170 to 173 °C
NC(N)=NC(N)=NCc1cccc(Cl)c1 [BIG12],EC50,[3],97 nM
"Cc1ccccc1N1CCN(C(=N)N)CC1.Cl [Compound 2, 4-(o-Tolyl)piperazine-1-carboximidamide hydrochloride]",Emax at 10 µM,[1],100%
same,EC50,[1]; [14],30.2 nM
same,CC50,[2],80 ± 5 µM
same,Therapeutic index (CC50/EC50),[5],2667
same,melting point,,159 to 162 °C
"Cl.N=C(N)N1CCN(c2ccccc2F)CC1 [Compound 13, 4-(2-Fluorophenyl)piperazine-1-carboximidamide hydrochloride]",hTAAR1 Activity,[1]; [10],inactive
same,CC50,[2],87 ± 5 µM
same,melting point,,145 to 148 °C
"Cl.N=C(N)N1CCN(c2ccc(Cl)c(Cl)c2)CC1 [Compound 16, 4-(3,4-Dichlorophenyl)piperazine-1-carboximidamide hydrochloride]",Emax at 10 µM,[1],49%
same,EC50,[1]; [12],71 nM
same,CC50,[2],89 ± 4 µM
same,Therapeutic index (CC50/EC50),[5],1254
same,melting point,,235 to 237 °C
"Cl.N=C(N)N1CCN(c2ccccc2Cl)CC1 [Compound 3, 4-(2-Chlorophenyl)piperazine-1-carboximidamide hydrochloride]",Emax at 10 µM,[1],90%
same,EC50,[1]; [12],160 nM
same,CC50,[2],> 100 µM
same,Therapeutic index (CC50/EC50),[5],625
COc1ccc(N=C(N)N=C(N)N)cc1 [BIG9],mTAAR1 EC50,[3],inactive
same,hTAAR1 EC50,[4]; [13],inactive
"N=C(N)N=C(N)N1CCN(c2ccccc2)CC1 [Compound 1a, 1-phenyl-4-biguanylpiperazine]",EC50,[3],2380 nM
"Cl.N=C(N)N1CCN(c2ncccn2)CC1 [Compound 11, 4-(Pyrimidin-2-yl)piperazine-1-carboximidamide hydrochloride]",hTAAR1 Activity,[1]; [10],inactive
same,CC50,[2],64 ± 2 µM
N=C(N)N=C(N)N1CCN(c2ccccc2Cl)CC1 [Compound 3a],EC50,[3],2660 nM
Cc1c(F)cccc1[C@H]1COC(N)=N1 [RO5263397],AMES/MNT test,[6],negative
same,human hepatocyte clearance,[7],acceptable
"Cl.N=C(N)N1CCN(c2ccc(Cl)cc2)CC1 [Compound 5, 4-(4-Chlorophenyl)piperazine-1-carboximidamide hydrochloride]",hTAAR1 Activity,[1]; [10],inactive
same,sympathomimetic effect,[8],a rise in the blood pressure
same,CC50,[2],95 ± 3 µM
"NCCc1ccccc1 [β-PEA, β-phenylethylamine]",pEC50,"[4]; hTAAR1; endogenous agonist, no reference given; cited from earlier work",6.70 M
"Cl.N=C(N)N1CCN(c2ccccc2)CC1 [Compound 1, 4-Phenylpiperazine-1-carboximidamide hydrochloride]",Emax at 10 µM,[1],71%
same,EC50,[1]; [12],370 nM
same,sympathomimetic effect,[8],a rise in the blood pressure
same,CC50,[2],84 ± 5 µM
same,Therapeutic index (CC50/EC50),[5],227
same,melting point,,214 to 217 °C
same,increase of the concentration of NE in the brain,[9],about 34.5%
same,increase of the concentration of NE in the heart,[9],~42.7%
"COc1cccc(N2CCN(C(=N)N)CC2)c1.Cl [Compound 7, 4-(3-Methoxyphenyl)piperazine-1-carboximidamide hydrochloride]",Emax at 10 µM,[1],32%
same,EC50,[1]; [12],244 nM
same,CC50,[2],87 ± 4 µM
same,Therapeutic index (CC50/EC50),[5],357
"Cl.N=C(N)N1CCN(c2cccc(Cl)c2)CC1 [Compound 4, 4-(3-Chlorophenyl)piperazine-1-carboximidamide hydrochloride]",Emax at 10 µM,[1],35%
same,EC50,[1]; [12],> 2000 nM
same,sympathomimetic effect,[8],a rise in the blood pressure
same,CC50,[2],90 ± 3 µM
same,Therapeutic index (CC50/EC50),[5],45
"Cl.N=C(N)N1CCN(c2ccc(F)cc2)CC1 [Compound 14, 4-(4-Fluorophenyl)piperazine-1-carboximidamide hydrochloride]",hTAAR1 Activity,[1]; [10],inactive
same,CC50,[2],94 ± 6 µM
CCc1[nH]nc(C(=O)Nc2ccc([C@H]3CNCCO3)cc2)c1C [(4-Aminophenyl)morpholino derivative],hTAAR1 efficacy,[4]; partial agonist; cited from earlier work,42%
"N=C(N)N1CCN(c2cccc(C(F)(F)F)c2)CC1 [Compound 9, 4-[(3-Trifluoromethyl)phenyl]piperazine-1-carboximidamide hydrochloride]",Emax at 10 µM,[1]; [10],80%
same,EC50,[1]; [12],64 nM
same,CC50,[2],> 100 µM
same,Therapeutic index (CC50/EC50),[5],1562
"COc1ccccc1N1CCN(C(=N)N)CC1.Cl [Compound 6, 4-(2-Methoxyphenyl)piperazine-1-carboximidamide hydrochloride]",Emax at 10 µM,[1],64%
same,EC50,[1]; [12],93 nM
same,CC50,[2],83 ± 5 µM
same,Therapeutic index (CC50/EC50),[5],892
"Cl.N#Cc1ccccc1N1CCN(C(=N)N)CC1 [Compound 12, 4-(2-Cyanophenyl)piperazine-1-carboximidamide hydrochloride]",hTAAR1 Activity,[1]; [10],inactive
same,CC50,[2],78 ± 2 µM
same,melting point,,236 to 238 °C
"Cl.N=C(N)N1CCN(c2cccc(Cl)c2Cl)CC1 [Compound 15, 4-(2,3-Dichlorophenyl)piperazine-1-carboximidamide hydrochloride]",Emax at 10 µM,[1],81%
same,EC50,[1]; [14],20 nM
same,CC50,[2],82 ± 5 µM
same,Therapeutic index (CC50/EC50),[5],4100
NC1=N[C@H](c2ccc(Br)cc2)CO1 [Compound 27b],pEC50,"[4]; 2-aminooxazolines reported by Roche, Table S1; cited from earlier work",5.00 M
N=C(N)N=C(N)N1CCN(c2ncccn2)CC1 [Compound 10a],EC50,[3],9000 nM
same,hTAAR1 EC50,[4]; [13],inactive
